Assay results: EPA's ToxValDB 9.5 (doi:10.2903/j.efsa.2005.45r)

Legend:
[1] = tested on: Canidae; settings: subchronic; duration: 90 days; oral; Dog Other; body weight
[2] = tested on: Daphnia magna; settings: chronic/long-term; duration: 21 days; reproduction
[3] = tested on: Apis mellifera; settings: acute; duration: 48 hours; oral; unspecified; mortality
[4] = tested on: Chrysoperla externa; settings: not reported; mortality
[5] = tested on: Anas platyrhynchos
[6] = tested on: Tagia sp.; settings: acute; mortality
[7] = tested on: Colinus virginianus; settings: oral
[8] = tested on: Rattus norvegicus; settings: for NOAEL: chronic
[9] = tested on: Aphidius rhopalosiphi; settings: acute; duration: 7 days; mortality
[10] = tested on: Oncorhynchus mykiss
[11] = short-term, oral, feed, mortality

CCS(=O)(=O)c1cccnc1S(=O)(=O)NC(=O)Nc1nc(OC)cc(OC)n1 [Rimsulfuron]
NOAEL [1]: 9.63 mg/kg-day
NOEC [2]: 1 mg/L
LD50 [3]: > 100 µg/piece
LEL [4]: 37500 g/ha
LD50 ([5]; acute, oral, unspecified, mortality): > 2250 mg/kg
NOAEL ([5]; reproductive): 1250 mg/kg
NOEC ([5]; short-term, oral, feed): 5620 mg/kg
LC50 [5, 11]: > 5620 mg/kg
LD50 [5, 11]: > 1610 mg/kg-day
LC50 [6]: > 1000 mg/kg
LC50 ([7]; acute, diet, mortality): > 5620 mg/kg
LD50 ([7]; acute, mortality): > 2250 mg/kg
NOEC ([7]; short-term, diet): 5620 mg/kg-day
LD50 ([8]; acute, oral, mortality): > 5000 mg/kg
NOAEL [8]: 3000 mg/kg-day
NOAEL ([8]; duration: 2 years, oral, body weight): 11.8 mg/kg-day
LEL [9]: < 37.5 g/ha
LC50 ([10]; acute, duration: 96 hours, mortality): > 390 µg/mL
NOEC ([10]; chronic/long-term, duration: 21 days, growth): 125 mg/L
